This note sets out measurements from patent publication US20210087565A1, “ANTISENSE ANTIBIOTICS AND BACTERIAL SECRETION BASED DELIVERY SYSTEM TO ELIMINATE DRUG-RESISTANT BACTERIA” (priority 2018, published 2021).

The test system of series [1] is ESBL KPN. Nature of the series: PNA growth assay (optical density) on clinical isolate. In kind it is cell-based, Klebsiella pneumoniae. The following applies: for monotherapy effect (in words): 10 μM. As to the method:
(§1) Bacterial Cell culture: The clinical isolates were obtained from the lab of Nancy Madinger at the University of Colorado Anschutz campus. Clinical isolates were grown in Cation Adjusted Mueller Hinton broth (CAMHB) (Becton, Dickinson and Company 212322) at 37° C. with 225 rpm shaking or on solid CAMHB with 1.5% agar at 37° C. Clinical isolates were maintained as freezer stocks in 90% CAMHB, 10% glycerol at −80° C. Freezer stocks were streaked out onto solid CAMHB and incubated for 16 h to produce single colonies prior to experiments. For each biological replicate, a single colony was picked from solid media and grown for 16 h in liquid CAMHB prior to experiments. Non-clinical isolates, such as E. coli MG1655 (ATCC700926) and Salmonella entorica serovar typhimurium SL1344, were cultured in liquid 2% lysogeny broth (LB) or on 2% LB with 1.5% agar for solid plates. S. typhimurium cultures were supplemented with 30 μg/mL streptomycin and SL1344 strains containing plasmids pFPV (SL1344-mCherry) or pRG1 modified with a lacIq promoter (SL1344-Holin) were supplemented with 100 μg/mL ampicillin. Freezer stocks were stored in 60% LB broth, 40% glycerol at −80° C. Freezer stocks were streaked out onto solid LB and incubated for 16 h to produce single colonies before experiments. For biological replicates, single colonies were started in liquid LB and grown for 16 hours prior to experiments. E. coli MG1655 PNA growth experiments were carried out in M9 media (1×M9 minimal media salts solution (MP Biomedicals), 2.0 mM MgSO4, and 0.1 mM CaCl2 in sterile water) with 0.4% glucose.
(§2) PNA growth assay: Biological replicates were diluted 1:10,000 into treatment condition in 384-well plates and measured for 24 h in a Tecan GENios at 562 nm with a bandwidth of 35 nm. Media absorbance blanks were subtracted from data prior to analysis. Normalized optical density (OD) data is shown normalized to the time point where the “no treatment” growth curves reached saturation phase which varied across biological replicates.

Series [2] relates to CRE E. coli. Described as above. In kind it is cell-based, Escherichia coli. As to conditions: for growth inhibition: 10 μM PNA, optical density vs no treatment at 16 hours. As to the method:
as §1, §2

Series [3] has as its system MDR E. coli. Described as above. In kind it is cell-based, Escherichia coli. The following applies: for growth inhibition: 10 μM PNA, optical density vs no treatment at 16 hours. As for the experimental part:
as §1, §2

Series [4] relates to CRE E. coli. The series is classed as cell-based, Escherichia coli. The following applies: for S-value (Bliss Independence model): S>0 indicates synergy; for growth with combination therapy (in words): p<0.05. As to the method: (§3) Combinatorial effects were evaluated using the Bliss Independence model where the S parameter defines a deviation from no interaction as is defined as: […]
(§4) Where ODAB is the OD at saturation time in only antibiotic, OD0 is the OD at saturation in no treatment, ODPNA is the OD at saturation in only antisense-PNA at 10 μM, and ODAB, PNA is the OD at saturation in a combination of antibiotic and antisense-PNA. Saturation time was determined as the time when the no treatment control reached its saturation growth phase. S>0 is a deviation towards synergy and S<0 is a deviation towards antagonism.

Series [5] has as its system E. coli MG1655. Nature of the series: Growth curves and CFU of lab strain treated with PNA. The series is classed as cell-based, Escherichia coli. As to conditions: 10 μM. As for the experimental part:
FIG. 7. Dose response of various PNA. Optical density of a 1:10,000 dilution of MG6155 from overnight liquid culture, treated with various concentrations of antisense inhibitors was measured for 3 biological replicates with error bars as standard deviations. Normalized growth was measured as the optical density at 22 hours normalized to no treatment. An asterisk (*) indicates a significant difference (p<0.05) as compared to no treatment for each inhibitor.
FIG. 8. Antisense Inhibitors targeting novel pathways can inhibit growth of E. coli. z. (A) Growth curves of E. coli MG1655 from a 1:10,000 dilution from an overnight culture, normalized to time t=0 with 10 μM of respective antisense inhibitor. […] (B) Colony forming units per milliliter of MG1655 E. coli for respective treatment as a function of time. The CFU/mL at t=0 represents the starting culture after a 1:100,000 dilution from overnight culture. […] Significance is measured as p<0.05.
as §1
PNA growth assay: Biological replicates were diluted 1:10,000 into treatment condition in 384-well plates and measured for 24 h in a Tecan GENios at 562 nm with a bandwidth of 35 nm. Media absorbance blanks were subtracted from data prior to analysis. […]

Series [6] deals with ESBL KPN. Description: Potentiation of antibiotics with PNAs (Bliss Independence). As to conditions: 10 μM PNA + 2 μg/mL tetracycline; for S-value (Bliss Independence model): S>0 indicates synergy. In kind it is cell-based, Klebsiella pneumoniae. As to the method:
as §3, §4

The test system of series [7] is MDR STm. Nature of the series: PNA growth assay (optical density) on clinical isolate. The series is classed as cell-based, Salmonella enterica serovar typhimurium. The following applies: MDR STm; 10 μM PNA; optical density vs no treatment at 16 hours. As for the experimental part:
as §1, §2

Series [8] concerns SL1344. Nature of the series: Growth inhibition of SL1344 in broth culture. The series is classed as cell-based, Salmonella enterica serovar typhimurium. As to conditions: 10 μM, 24 hours. As to the method: FIG. 25. α-recA growth inhibition of SL1344. Optical density was measured at 600 nm in 50 μL cultures and normalized optical density is reported at 24 hours as absorbance at 600 nm minus media blank and each biological replicate normalized to the optical density reading at time zero. Overnight cultures of SL1344 were diluted 1:10,000 and treated with 10 μM addition of α-recA for 24 hours. Error bars indicate standard deviation of n=3 biological replicates.

In series [9] the test system is SL1344-mCherry in HeLa cells. Nature of the series: Double infection of HeLa cells, PNA delivery and release by SL1344-Holin. The series is classed as cell-based, Salmonella enterica serovar typhimurium. As for the experimental part: FIG. 14. Combining the bacterial Type III secretion system (T3SS) and the holing/endolysin kill switch for PNA delivery and release. (A) Schematic showing the PNA deliver and release approach using the T3SS and Holin systems respectively to treat an intracellular infection of HeLa cells. HeLa cells were seeded 24 hours prior to infection. A 4:1 mixture of SL1344-Holin to SL1344-mCherry cells with (Bottom) and without (Top) 45 minute PNA pretreatment used to infect HeLa cells for 45 minutes. (Bottom) The PNA enters SL1344-Holin during the 45 minute pretreatment and is carried into the HeLa cell during infection. Following infection and gentamicin protection, the PNA is released from the SL1344-Holin during the 18-hours of treatment to target the SL1344-mCherry population. After 18-hours of incubation the HeLa cells are lysed to determine the number of intracellular colony forming units. (B) Normalized intracellular bacterial load represented as the ratio of normalized SL1344-mCherry:
To that end, the present inventors built a “delivery strain” of Salmonella by expressing the holin lysis cassette, encoding a holin-antiholin according to SEQ ID NO. 34, under control of an inducible laciQ promoter (referred to as SL1344-Holin, FIG. 24), and a therapeutic “target strain” of Salmonella by expressing mCherry from a plasmid in SL1344 (referred to as SL1344-mCherry). The present inventors followed the same infection protocol as described above with few modifications and treated cells with a different PNA, α-recA (N′-[…]-AEEA-[…]-C′), to show the generalizability of the assay. […] As with the previous experiment, the present inventors allowed the Salmonella to uptake the PNA during a 45 minute incubation where the treatment condition (referred to as T3SS-PNA) consisted of SL1344-Holin incubated with 10 μM of α-recA in phosphate buffer saline (PBS) and the no treatment was incubated in only PBS. In parallel, equal cell densities of the target strain SL1344-mCherry was incubated with PBS for 45-minutes. SL1344-Holin (with or without PNA) and SL1344-mCherry cells were washed and mixed in a ratio of 4:1 respectively to achieve a final total MOI of approximately 10:1 for infection of HeLa cells. The infection was carried out for 45 minutes followed by the removal of extracellular bacteria using a gentamicin wash (FIG. 5A), and 18 hours of incubation in fresh growth medium containing gentamicin. […] To account for this variation, the present inventors measured the extracellular and intracellular bacterial load before and after infection respectively and reported the normalized ratio of the latter to the former (FIG. 5B-C, FIG. 26). […]

In series [10] the test system is NDM-1 KPN. Description: Antibiotic resistance screening (MIC against CLSI breakpoints). The series is classed as cell-based, Klebsiella pneumoniae. The following applies: meropenem, CLSI 2016-2017 breakpoints. As to the method: (§5) Phenotypic antibiotic resistance characterization of the clinical isolates was performed to determine “sensitive” (S), “intermediate” (I), and “resistant” (R) phenotypes using the 2016-2017 Clinical & Laboratory Standards Institute (CLSI) sensitive/resistant breakpoint values (Table 4).
(§6) Antibiotic resistance screening: Sensitive/resistant breakpoints were taken from the 2016-2017 Clinical & Laboratory Standards Institute report (Table 4). Liquid cultures of the clinical strains were diluted to a 0.5 McFarland standard and added to the respective antibiotic test condition. The antibiotic minimum inhibitory concentration (MIC) for each clinical isolate was determined as the lowest antibiotic concentration which prevented visible cell growth for 24 h. Strains were: “sensitive” if the MIC was equal to or below the sensitive-breakpoint concentration, “resistant” if the MIC was greater than or equal to the resistant-breakpoint concentration, and “intermediate” if the MIC was in-between.

The subject of series [11] is clinical isolates of Enterobacteriaceae. Nature of the series: Antibiotic resistance screening (MIC against CLSI breakpoints), all strains. The series is classed as cell-based. The following applies: CLSI 2016-2017 breakpoints. As to the method: as §5, §6
Where [12] appears, read: 10 μM PNA + chloramphenicol 8 μg/mL.

Entries after “also recorded” stand apart in the source; their conditions may differ. Where two headings read alike, the source gives them in different places.

Turning to “α-gyrB: 12-mer antisense PNA GTTGATGTCGAA (SEQ ID NO. 18) targeting gyrB, conjugated to (KFF)3K cell penetrating peptide via AEEA-linker (all peptide nucleic acid (PNA); (KFF)3K cell-penetrating peptide attached via AEEA linker)”, the “monotherapy effect (in words)” value is “no or minimal growth inhibition” in series [1], “partial therapeutic effect; also recorded: effective in killing” in series [2] (10 μM) and “effective in killing” in series [3]. Moreover, the growth inhibition in [1] (10 μM PNA, optical density vs no treatment at 16 hours) was 5±1.4%; in series [2], 71±12%; in [3], 36±14.2%; in series [7], 74±15.4%. Also, the figures for the “S-value (Bliss Independence model)” value in series [4] (setting [12]), in [4] (10 μM PNA + gentamicin 4 μg/mL) and in series [6] were 0.27, 0.19 and “positive”, respectively. The entries for the “growth with combination therapy (in words)” value in series [4] (setting [12]), in [4] (10 μM PNA + gentamicin 4 μg/mL) and in [6] were “significant growth inhibition with combination therapy compared to each monotherapy”, “significant growth inhibition with combination therapy compared to each monotherapy” and “significant growth inhibition compared to each monotherapy”, respectively. Further, the “effect on growth (in words)” value in [5] is “effective in killing”.
Take “N′-KFFKFFKFFK-AEEA-GTCGATAGCAT-C′ [α-recA]”: in series [8], the “effect on Salmonella in broth cultures (in words)” value is “lethal”. For the same compound, the “drop of normalized ratio of SL1344-mCherry to SL1344-Holin” value in series [9] (SL1344-Holin pretreated 45 minutes with 10 μM PNA, HeLa cells, 18 hours, compared to no treatment) was determined as 99.6±0.72%. Also, the “fate of target strain SL1344-mCherry (in words)” value in series [9] (two out of three biological replicates, across a range of MOI) is “completely eliminated”. The “normalized mCherry/Holin (in words)” value is given as “Significant decrease” in series [9] (with 1 mM IPTG during treatment, p=0.006) and “Significant decrease” in series [9] (without IPTG (leaky expression), p=0.026).
For the compound `C[C@@H](O)[C@H]1C(=O)N2C(C(=O)O)=C(S[C@@H]3CN[C@H](C(=O)N(C)C)C3)[C@H](C)[C@H]12` [meropenem], in series [10], the antibiotic resistance phenotype result is “resistant”.
Consider “α-ffh: 12-mer antisense PNA GACAATGTTTGA (SEQ ID NO. 16) targeting ffh, conjugated to (KFF)3K cell penetrating peptide via AEEA-linker (all peptide nucleic acid (PNA); (KFF)3K cell-penetrating peptide attached via AEEA linker)”, for which the “monotherapy effect (in words)” value in series [1] is “no or minimal growth inhibition”. Further, the results for the growth inhibition in series [2], in series [3] and in series [7] were 98±1.5%, 99±0.9% and 99±0.8%, respectively. Moreover, in series [6], the “growth with combination therapy (in words)” value is recorded as “significant growth inhibition compared to each monotherapy”. For the same compound, in series [6], the “S-value (Bliss Independence model)” value is given as “positive”.
Take `CC1(C)S[C@@H]2[C@H](NC(=O)[C@H](N)c3ccccc3)C(=O)N2[C@H]1C(=O)O` [ampicillin]: the antibiotic resistance phenotype entry in series [11] (ampicillin) was “resistant”.
As to `CO/N=C(\C(=O)N[C@@H]1C(=O)N2C(C(=O)O)=C(CSc3nc(=O)c(=O)[nH]n3C)CS[C@H]12)c1csc(N)n1` [ceftriaxone], in series [11] (ceftriaxone), the antibiotic resistance phenotype entry is on record as “resistant”.
